In BindingDB's records for doi:10.1016/S0960-894X(01)80247-X (1994) one finds pIC50 data, which are given here for 12 compounds.

As usually defined, the pIC50 is −log10 of the IC50, conventionally taken in molar units. Lower therefore signals a large IC50.

Assay [1] addresses T1, Endothelin receptor type B (Rattus norvegicus, UniProt P21451).
T1 sequence (P21451 whole entry): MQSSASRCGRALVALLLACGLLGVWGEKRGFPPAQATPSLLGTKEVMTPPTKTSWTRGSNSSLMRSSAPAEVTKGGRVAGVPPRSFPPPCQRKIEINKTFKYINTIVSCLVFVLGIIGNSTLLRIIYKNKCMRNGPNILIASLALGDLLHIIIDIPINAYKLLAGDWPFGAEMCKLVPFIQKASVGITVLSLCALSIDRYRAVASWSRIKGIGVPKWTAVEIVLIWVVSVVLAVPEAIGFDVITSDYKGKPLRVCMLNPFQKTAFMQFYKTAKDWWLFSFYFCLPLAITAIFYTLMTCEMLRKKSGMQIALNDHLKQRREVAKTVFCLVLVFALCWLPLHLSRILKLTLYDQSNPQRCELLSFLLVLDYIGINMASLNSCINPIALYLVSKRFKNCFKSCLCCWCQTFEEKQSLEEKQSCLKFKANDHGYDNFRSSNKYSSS
In words: Concentration required to produce 50% inhibition of binding against ET B receptor obtained from rat brain membrane.

Assay [2] deals with T2, Endothelin-1 receptor (Rattus norvegicus, UniProt P26684).
T2 sequence (P26684 whole entry): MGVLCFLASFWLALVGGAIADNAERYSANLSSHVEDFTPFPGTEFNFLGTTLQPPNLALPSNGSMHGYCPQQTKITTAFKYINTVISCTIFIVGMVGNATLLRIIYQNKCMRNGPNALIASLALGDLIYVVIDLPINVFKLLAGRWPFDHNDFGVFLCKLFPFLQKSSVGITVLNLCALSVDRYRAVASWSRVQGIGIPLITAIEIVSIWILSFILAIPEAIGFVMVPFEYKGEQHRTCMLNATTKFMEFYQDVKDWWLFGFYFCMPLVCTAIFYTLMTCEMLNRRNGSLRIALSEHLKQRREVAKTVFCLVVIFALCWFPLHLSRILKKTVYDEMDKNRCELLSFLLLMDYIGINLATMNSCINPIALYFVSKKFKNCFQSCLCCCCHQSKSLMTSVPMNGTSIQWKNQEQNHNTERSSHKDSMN
In words: Concentration required to produce 50% inhibition of binding against ET A receptor obtained from rat thoracic aortic membrane.

Take `CCC(CC)C[C@@H](NC(=O)[C@@H](NC(=O)[C@H](CC(=O)O)NC(=O)[C@H](CC(C)C)NC(=O)[C@H](Cc1cnc[nH]1)NC(=O)[C@H](CS)NC(=O)[C@H](Cc1ccccc1)NC(=O)[C@H](Cc1ccc(O)cc1)NC(=O)[C@@H](NC(=O)[C@H](CS)NC(=O)[C@H](CCC(=O)O)NC(=O)[C@H](CCCCN)NC(=O)[C@H](CC(=O)O)NC(=O)[C@H](CCSC)NC(=O)[C@H](CC(C)C)NC(=O)[C@H](CO)NC(=O)[C@H](CO)NC(=O)[C@H](CS)NC(=O)[C@H](CO)NC(=O)[C@@H](N)CS)C(C)C)[C@H](C)CC)C(=O)N[C@@H](Cc1c[nH]c2ccccc12)C(=O)O` [Endothelin-1 analogue]: the pIC50 stood at 9.78 in assay [1] and 8.06 in assay [2].

In the case of `CC[C@@H](C)[C@@H](NC(=O)[C@@H](NC(=O)[C@H](CC(=O)O)NC(=O)[C@H](CC(C)C)NC(=O)[C@H](Cc1cnc[nH]1)NC(=O)[C@H](CS)NC(=O)[C@H](Cc1ccccc1)NC(=O)[C@H](Cc1ccc(O)cc1)NC(=O)[C@@H](NC(=O)[C@H](CS)NC(=O)[C@H](CCC(=O)O)NC(=O)[C@H](CCCCN)NC(=O)[C@H](CC(=O)O)NC(=O)[C@H](CCSC)NC(=O)[C@H](CC(C)C)NC(=O)[C@H](CO)NC(=O)[C@H](CO)NC(=O)[C@H](CS)NC(=O)[C@H](CO)NC(=O)[C@@H](N)CS)C(C)C)[C@@H](C)CC)C(=O)N[C@@H](Cc1c[nH]c2ccccc12)C(=O)O` [Endothelin-1 analogue], the negative-log IC50 (pIC50) in assay [2] turned out to be 7.59.

On to `CC[C@@H](C)[C@H](NC(=O)[C@H](CC(=O)O)NC(=O)[C@H](CC(C)C)NC(=O)[C@H](Cc1cnc[nH]1)NC(=O)[C@H](CS)NC(=O)[C@H](Cc1ccccc1)NC(=O)[C@H](Cc1ccc(O)cc1)NC(=O)[C@@H](NC(=O)[C@H](CS)NC(=O)[C@H](CCC(=O)O)NC(=O)[C@H](CCCCN)NC(=O)[C@H](CC(=O)O)NC(=O)[C@H](CCSC)NC(=O)[C@H](CC(C)C)NC(=O)[C@H](CO)NC(=O)[C@H](CO)NC(=O)[C@H](CS)NC(=O)[C@H](CO)NC(=O)[C@@H](N)CS)C(C)C)C(=O)N[C@@H](C(=O)N[C@@H](Cc1c[nH]c2ccccc12)C(=O)O)C(C)C` [Endothelin-1 analogue], for which the results for the pIC50 in assay [1] and in assay [2] were 9.05 and 9, respectively.

As to `CC[C@@H](C)[C@H](NC(=O)[C@H](CC(=O)O)NC(=O)[C@H](CC(C)C)NC(=O)[C@H](Cc1cnc[nH]1)NC(=O)[C@H](CS)NC(=O)[C@H](Cc1ccccc1)NC(=O)[C@H](Cc1ccc(O)cc1)NC(=O)[C@@H](NC(=O)[C@H](CS)NC(=O)[C@H](CCC(=O)O)NC(=O)[C@H](CCCCN)NC(=O)[C@H](CC(=O)O)NC(=O)[C@H](CCSC)NC(=O)[C@H](CC(C)C)NC(=O)[C@H](CO)NC(=O)[C@H](CO)NC(=O)[C@H](CS)NC(=O)[C@H](CO)NC(=O)[C@@H](N)CS)C(C)C)C(=O)N[C@H](CC(C)C)C(=O)N[C@@H](Cc1c[nH]c2ccccc12)C(=O)O` [Endothelin-1 analogue], the pIC50 in assay [1] stood at 9.94; in assay [2], 7.97.

In the case of `CC[C@@H](C)[C@H](NC(=O)[C@H](CC(=O)O)NC(=O)[C@H](CC(C)C)NC(=O)[C@H](Cc1cnc[nH]1)NC(=O)[C@H](CS)NC(=O)[C@H](Cc1ccccc1)NC(=O)[C@H](Cc1ccc(O)cc1)NC(=O)[C@@H](NC(=O)[C@H](CS)NC(=O)[C@H](CCC(=O)O)NC(=O)[C@H](CCCCN)NC(=O)[C@H](CC(=O)O)NC(=O)[C@H](CCSC)NC(=O)[C@H](CC(C)C)NC(=O)[C@H](CO)NC(=O)[C@H](CO)NC(=O)[C@H](CS)NC(=O)[C@H](CO)NC(=O)[C@@H](N)CS)C(C)C)C(=O)N[C@H](CCC(N)=O)C(=O)N[C@@H](Cc1c[nH]c2ccccc12)C(=O)O` [Endothelin-1 analogue], the negative-log IC50 (pIC50) in assay [1] amounted to 5.59; in assay [2], 5.27.

Take `CC[C@@H](C)[C@H](NC(=O)[C@H](CC(=O)O)NC(=O)[C@H](CC(C)C)NC(=O)[C@H](Cc1cnc[nH]1)NC(=O)[C@H](CS)NC(=O)[C@H](Cc1ccccc1)NC(=O)[C@H](Cc1ccc(O)cc1)NC(=O)[C@@H](NC(=O)[C@H](CS)NC(=O)[C@H](CCC(=O)O)NC(=O)[C@H](CCCCN)NC(=O)[C@H](CC(=O)O)NC(=O)[C@H](CCSC)NC(=O)[C@H](CC(C)C)NC(=O)[C@H](CO)NC(=O)[C@H](CO)NC(=O)[C@H](CS)NC(=O)[C@H](CO)NC(=O)[C@@H](N)CS)C(C)C)C(=O)N[C@H](Cc1cnc[nH]1)C(=O)N[C@@H](Cc1c[nH]c2ccccc12)C(=O)O` [Endothelin-1 analogue]: the pIC50 was 7.55 in assay [1] and 6.13 in assay [2].

`CC[C@H](C)[C@H](NC(=O)[C@H](CC(=O)O)NC(=O)[C@H](CC(C)C)NC(=O)[C@H](Cc1cnc[nH]1)NC(=O)[C@H](CS)NC(=O)[C@H](Cc1ccccc1)NC(=O)[C@H](Cc1ccc(O)cc1)NC(=O)[C@@H](NC(=O)[C@H](CS)NC(=O)[C@H](CCC(=O)O)NC(=O)[C@H](CCCCN)NC(=O)[C@H](CC(=O)O)NC(=O)[C@H](CCSC)NC(=O)[C@H](CC(C)C)NC(=O)[C@H](CO)NC(=O)[C@H](CO)NC(=O)[C@H](CS)NC(=O)[C@H](CO)NC(=O)[C@@H](N)CS)C(C)C)C(=O)N[C@@H](C(=O)N[C@@H](Cc1c[nH]c2ccccc12)C(=O)O)C1CCCCC1` [Endothelin-1 analogue]: the results for the pIC50 in assay [1] and in assay [2] were 9.59 and 7.04, respectively.

Take `CC[C@H](C)[C@H](NC(=O)[C@H](CC(=O)O)NC(=O)[C@H](CC(C)C)NC(=O)[C@H](Cc1cnc[nH]1)NC(=O)[C@H](CS)NC(=O)[C@H](Cc1ccccc1)NC(=O)[C@H](Cc1ccc(O)cc1)NC(=O)[C@@H](NC(=O)[C@H](CS)NC(=O)[C@H](CCC(=O)O)NC(=O)[C@H](CCCCN)NC(=O)[C@H](CC(=O)O)NC(=O)[C@H](CCSC)NC(=O)[C@H](CC(C)C)NC(=O)[C@H](CO)NC(=O)[C@H](CO)NC(=O)[C@H](CS)NC(=O)[C@H](CO)NC(=O)[C@@H](N)CS)C(C)C)C(=O)N[C@@H](C(=O)N[C@@H](Cc1c[nH]c2ccccc12)C(=O)O)c1ccccc1` [Endothelin-1 analogue]: the results for the pIC50 in assay [1] and in assay [2] were 8.6 and 6.85, respectively.

Take `CC[C@H](C)[C@H](NC(=O)[C@H](CC(=O)O)NC(=O)[C@H](CC(C)C)NC(=O)[C@H](Cc1cnc[nH]1)NC(=O)[C@H](CS)NC(=O)[C@H](Cc1ccccc1)NC(=O)[C@H](Cc1ccc(O)cc1)NC(=O)[C@@H](NC(=O)[C@H](CS)NC(=O)[C@H](CCC(=O)O)NC(=O)[C@H](CCCCN)NC(=O)[C@H](CC(=O)O)NC(=O)[C@H](CCSC)NC(=O)[C@H](CC(C)C)NC(=O)[C@H](CO)NC(=O)[C@H](CO)NC(=O)[C@H](CS)NC(=O)[C@H](CO)NC(=O)[C@@H](N)CS)C(C)C)C(=O)N[C@@H](Cc1c[nH]c2ccccc12)C(=O)N[C@@H](Cc1c[nH]c2ccccc12)C(=O)O` [Endothelin-1 analogue]: the pIC50 in assay [1] amounted to 9.77; in assay [2] it was 6.71.

`CC[C@H](C)[C@H](NC(=O)[C@H](CC(=O)O)NC(=O)[C@H](CC(C)C)NC(=O)[C@H](Cc1cnc[nH]1)NC(=O)[C@H](CS)NC(=O)[C@H](Cc1ccccc1)NC(=O)[C@H](Cc1ccc(O)cc1)NC(=O)[C@@H](NC(=O)[C@H](CS)NC(=O)[C@H](CCC(=O)O)NC(=O)[C@H](CCCCN)NC(=O)[C@H](CC(=O)O)NC(=O)[C@H](CCSC)NC(=O)[C@H](CC(C)C)NC(=O)[C@H](CO)NC(=O)[C@H](CO)NC(=O)[C@H](CS)NC(=O)[C@H](CO)NC(=O)[C@@H](N)CS)C(C)C)C(=O)N[C@H](C(=O)N[C@@H](Cc1c[nH]c2ccccc12)C(=O)O)[C@@H](C)CC` [Endothelin-1 analogue] came in with a pIC50 in assay [2] of 9.93.

As for `CC[C@H](C)[C@H](NC(=O)[C@H](CC(=O)O)NC(=O)[C@H](CC(C)C)NC(=O)[C@H](Cc1cnc[nH]1)NC(=O)[C@H](CS)NC(=O)[C@H](Cc1ccccc1)NC(=O)[C@H](Cc1ccc(O)cc1)NC(=O)[C@@H](NC(=O)[C@H](CS)NC(=O)[C@H](CCC(=O)O)NC(=O)[C@H](CCCCN)NC(=O)[C@H](CC(=O)O)NC(=O)[C@H](CCSC)NC(=O)[C@H](CC(C)C)NC(=O)[C@H](CO)NC(=O)[C@H](CO)NC(=O)[C@H](CS)NC(=O)[C@H](CO)NC(=O)[C@@H](N)CS)C(C)C)C(=O)N[C@H](C(=O)N[C@@H](Cc1c[nH]c2ccccc12)C(=O)O)c1ccccc1` [Endothelin-1 analogue], the pIC50 in assay [1] was 9.76; in assay [2], 8.89.

For `CC[C@H](C)[C@H](NC(=O)[C@H](CC(=O)O)NC(=O)[C@H](CC(C)C)NC(=O)[C@H](Cc1cnc[nH]1)NC(=O)[C@H](CS)NC(=O)[C@H](Cc1ccccc1)NC(=O)[C@H](Cc1ccc(O)cc1)NC(=O)[C@@H](NC(=O)[C@H](CS)NC(=O)[C@H](CCC(=O)O)NC(=O)[C@H](CCCCN)NC(=O)[C@H](CC(=O)O)NC(=O)[C@H](CCSC)NC(=O)[C@H](CC(C)C)NC(=O)[C@H](CO)NC(=O)[C@H](CO)NC(=O)[C@H](CS)NC(=O)[C@H](CO)NC(=O)[C@@H](N)CS)C(C)C)C(=O)N[C@H](C)C(=O)N[C@@H](Cc1c[nH]c2ccccc12)C(=O)O` [Endothelin-1 analogue], the pIC50 in assay [1] stood at 7.96; in assay [2] it was 5.77.
